Data on six compounds can be found in US10875860B2, “Azaindenoisoquinoline compounds and uses thereof” (Purdue Research Foundation, priority 2016, dated 2020).

Where two headings read alike, the source gives them in different places.

For orientation: GI50 means the concentration at which growth is held to half of that of the control. In general, IC50 refers to the point on the concentration scale where inhibition reaches its midpoint. For orientation: melting point means the temperature of the solid-liquid transition.

In one data set the test system is SF-539. The data set is described as follows: NCI-60 cytotoxicity, SF-539. The note with it: Homo sapiens, SF-539, read-out: Cytotoxicity (GI50) CNS SF-539.
A further data set deals with HOP-62. The data set is described as follows: NCI-60 cytotoxicity, HOP-62. As to conditions: Homo sapiens, HOP-62, read-out: Cytotoxicity (GI50) Lung HOP-62.
The subject of data set [1] is NCI-60 panel of human cancer cell lines. The data set is described as follows: NCI-60 screen, mean graph midpoint over all cell lines. The note with it: Homo sapiens, read-out: Cytotoxicity (GI50) MGM.
In the next data set the test system is DU-145. Nature of the data set: NCI-60 cytotoxicity, DU-145. It is filed as cell-based. The note with it: Homo sapiens, single determinations, Table 2, read-out: Cytotoxicity (GI50) Prostate DU-145.
The subject of another data set is HCT-116. The data set is described as follows: NCI-60 cytotoxicity, HCT-116. The class given is cell-based. As to conditions: Homo sapiens, single determinations, Table 2, read-out: Cytotoxicity (GI50) Colon HCT-116.
For a further data set, the target named is T1, recombinant human TDP2 (Homo sapiens, UniProt O95551).
T1 sequence (O95551 1-362): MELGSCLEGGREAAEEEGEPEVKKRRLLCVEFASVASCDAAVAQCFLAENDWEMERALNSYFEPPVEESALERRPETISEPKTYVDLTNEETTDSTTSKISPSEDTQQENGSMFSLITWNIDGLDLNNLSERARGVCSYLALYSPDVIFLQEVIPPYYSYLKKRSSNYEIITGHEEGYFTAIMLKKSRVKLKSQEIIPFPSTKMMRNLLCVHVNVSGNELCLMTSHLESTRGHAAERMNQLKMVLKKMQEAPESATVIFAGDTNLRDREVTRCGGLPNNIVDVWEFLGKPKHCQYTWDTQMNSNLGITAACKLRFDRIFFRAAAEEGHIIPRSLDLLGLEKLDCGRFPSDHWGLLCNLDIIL
Nature of the data set: Recombinant Tdp2 assay. It is filed as biochemical. The note with it: read-out: Enzyme Inhibitory Activity Tdp2 (IC50).

The target of the next data set is Tdp1 (Homo sapiens, UniProt Q9NUW8). The data set is described as follows: Recombinant Tdp1 assay. The class given is biochemical. The note with it: determined in duplicate; Table 2; read-out: Enzyme Inhibitory Activity Tdp1 (IC50).
Sequence of Tdp1 (Q9NUW8 whole entry): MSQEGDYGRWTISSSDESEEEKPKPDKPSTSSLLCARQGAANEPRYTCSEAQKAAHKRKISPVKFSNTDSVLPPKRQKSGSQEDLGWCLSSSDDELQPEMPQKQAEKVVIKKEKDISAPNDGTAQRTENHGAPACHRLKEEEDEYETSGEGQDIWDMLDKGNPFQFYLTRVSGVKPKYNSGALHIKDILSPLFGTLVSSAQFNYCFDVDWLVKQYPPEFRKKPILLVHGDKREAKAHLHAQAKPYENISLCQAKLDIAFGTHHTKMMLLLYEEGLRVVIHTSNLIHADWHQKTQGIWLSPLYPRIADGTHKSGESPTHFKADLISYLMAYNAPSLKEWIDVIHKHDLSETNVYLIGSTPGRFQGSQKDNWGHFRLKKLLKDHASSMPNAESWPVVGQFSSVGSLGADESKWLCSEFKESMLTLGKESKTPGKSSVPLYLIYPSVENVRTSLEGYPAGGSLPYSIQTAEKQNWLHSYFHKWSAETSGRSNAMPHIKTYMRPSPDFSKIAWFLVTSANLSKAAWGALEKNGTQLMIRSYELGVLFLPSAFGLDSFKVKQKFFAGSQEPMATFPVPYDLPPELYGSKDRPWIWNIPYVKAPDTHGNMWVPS
The target of a further data set is T2, Top1 (Homo sapiens, UniProt P11387).
T2 sequence (P11387 1-765): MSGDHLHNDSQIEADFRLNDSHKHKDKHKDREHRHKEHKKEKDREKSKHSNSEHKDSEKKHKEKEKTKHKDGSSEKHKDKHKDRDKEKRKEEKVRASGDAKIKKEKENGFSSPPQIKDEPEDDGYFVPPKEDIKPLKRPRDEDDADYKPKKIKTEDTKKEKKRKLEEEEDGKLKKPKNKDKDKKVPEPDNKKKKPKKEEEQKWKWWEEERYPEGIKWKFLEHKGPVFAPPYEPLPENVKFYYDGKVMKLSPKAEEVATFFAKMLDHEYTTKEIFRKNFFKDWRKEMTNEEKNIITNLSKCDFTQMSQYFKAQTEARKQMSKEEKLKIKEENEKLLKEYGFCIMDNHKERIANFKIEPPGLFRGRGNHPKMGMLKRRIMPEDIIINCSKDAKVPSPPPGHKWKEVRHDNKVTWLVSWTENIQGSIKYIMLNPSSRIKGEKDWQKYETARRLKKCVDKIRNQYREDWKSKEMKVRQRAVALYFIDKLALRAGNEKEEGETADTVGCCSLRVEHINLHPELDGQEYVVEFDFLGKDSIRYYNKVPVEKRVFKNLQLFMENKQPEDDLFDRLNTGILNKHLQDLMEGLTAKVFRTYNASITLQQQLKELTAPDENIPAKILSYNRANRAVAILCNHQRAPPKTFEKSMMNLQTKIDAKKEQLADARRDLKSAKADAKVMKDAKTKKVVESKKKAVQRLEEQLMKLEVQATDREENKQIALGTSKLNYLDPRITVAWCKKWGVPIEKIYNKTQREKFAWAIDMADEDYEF
Nature of the data set: Top1-mediated DNA cleavage assay. As to conditions: DNA cleavage relative to 1 μM MJ-III-65 (19) and 1 μM camptothecin (18); Table 2. It is filed as biochemical.

Another data set deals with OVCAR-3. Nature of the data set: NCI-60 cytotoxicity, OVCAR-3. As to conditions: Homo sapiens, OVCAR-3, read-out: Cytotoxicity (GI50) Ovarian Ovcar-3.
The test system of another data set is UACC-62. Nature of the data set: NCI-60 cytotoxicity, UACC-62. The note with it: Homo sapiens, UACC-62, read-out: Cytotoxicity (GI50) Melanoma UACC-62.
The next data set has as its system MCF-7. Nature of the data set: NCI-60 cytotoxicity, MCF-7. As to conditions: Homo sapiens, MCF7, read-out: Cytotoxicity (GI50) Breast MCF-7.
Another data set has as its system SN12C. Nature of the data set: NCI-60 cytotoxicity, SN12C. As to conditions: Homo sapiens, read-out: Cytotoxicity (GI50) Renal SN12C.
Setting [2] is: determined in duplicate, Table 2.

Protocol for recombinant human TDP2: TDP2 reactions were carried out as described previously with the following modifications. […] Reactions were terminated and treated similarly to whole-cell extract and recombinant Tdp1 reactions (see previous paragraph).

Consider `COc1cnc2c(c1)C(=O)c1c-2n(CCCNC2=NCCS2)c(=O)c2cc(Cl)ccc12` [Compound 16c, 3-Chloro-6-(3-((4,5-dihydrothiazol-2-yl)amino)propyl)-9-methoxy-5H-pyrido[3′,2′:4,5]cyclopenta[1,2-c]isoquinoline-5,11(6H)-dione], for which the melting point fell in the range of 295 to 298 °C. In the data set with SF-539, the GI50 was 470 nM. The GI50 in the data set with HOP-62 stood at 42 nM. Moreover, the GI50 in [1] was 390 nM. In addition, the GI50 in the data set on DU-145 is 92 nM. Also, in the data set on HCT-116, the GI50 turned out to be 350 nM. The IC50 on recombinant human TDP2 was determined as 32900 ± 5700 nM. Also, the IC50 at Tdp1 stood at 11900 ± 3900 nM. The “Enzyme Inhibitory Activity Top1” value at Top1 is listed as “++”. Besides, the GI50 in the data set with OVCAR-3 was found to be 1300 nM. Also, in the data set on UACC-62, the GI50 was determined as 95 nM. Further, the GI50 in the data set on MCF-7 came to 36 nM.

As for `CNCCCn1c2c(c3ccc(Cl)cc3c1=O)C(=O)c1cc(OC)cnc1-2` [Compound 16g, 3-Chloro-9-methoxy-6-(3-(methylamino)propyl)-5H-pyrido[3′,2′:4,5]cyclopenta[1,2-c]isoquinoline-5,11(6H)-dione], the melting point was 274 to 275 °C. In the data set on SF-539, the GI50 stood at 730 nM. The GI50 with HOP-62 came out at 220 nM. Also, the GI50 in data set [1] turned out to be 600 nM. Further, the GI50 in the data set on DU-145 was 331 nM. In the data set on HCT-116, the GI50 was 550 nM. Moreover, the IC50 at recombinant human TDP2 (setting [2]) is greater than 111000 nM. Besides, the IC50 on Tdp1 turned out to be 16000 ± 3200 nM. Moreover, the GI50 in the data set on SN12C amounted to 1180 nM. Moreover, in the data set on OVCAR-3, the GI50 came out at 1410 nM. Further, the GI50 in the data set on UACC-62 was determined as 574 nM. Also, the GI50 in the data set with MCF-7 was found to be 46 nM.

The compound `COc1cnc2c(c1)C(=O)c1c-2n(CCCNC2=NCCS2)c(=O)c2cc(F)ccc12` [Compound 17c, 6-(3-((4,5-Dihydrothiazol-2-yl)amino)propyl)-3-fluoro-9-methoxy-5H-pyrido[3′,2′:4,5]-cyclopenta-[1,2-c]isoquinoline-5,11(6H)-dione] came in with a melting point of 226 to 250 °C. Further, in the data set with SF-539, the GI50 was 305 nM. In addition, the GI50 with HOP-62 is 59 nM. In addition, the GI50 in data set [1] is 269 nM. For the same compound, the GI50 with DU-145 was found to be 144 nM. Besides, in the data set with HCT-116, the GI50 was 82 nM. Further, the IC50 at recombinant human TDP2 amounted to 61600 ± 14000 nM. For the same compound, the IC50 at Tdp1 is greater than 111000 nM. Besides, the “Enzyme Inhibitory Activity Top1” value on Top1 is listed as “++”. Also, the GI50 in the data set on SN12C is 238 nM. In addition, in the data set on OVCAR-3, the GI50 worked out at 567 nM. Moreover, the GI50 in the data set with UACC-62 turned out to be 344 nM. The GI50 in the data set on MCF-7 turned out to be 33 nM.

With `COc1cnc2c(c1)C(=O)c1c-2n(CCCNC(C)C)c(=O)c2cc(F)ccc12` [Compound 17f, 3-Fluoro-6-(3-(isopropylamino)propyl)-9-methoxy-5H-pyrido[3′,2′:4,5]cyclopenta[1,2-c]isoquinoline-5,11(6H)-dione], the melting point is 285 to 292 °C. For the same compound, the GI50 with SF-539 was 248 nM. Further, the GI50 in the data set on HOP-62 amounted to 107 nM. Besides, the GI50 in data set [1] came to 165 nM. Moreover, the GI50 in the data set with DU-145 came out at 210 nM. For the same compound, the GI50 in the data set on HCT-116 is 93 nM. Besides, on recombinant human TDP2 (setting [2]), the IC50 was greater than 111000 nM. Further, on Tdp1, the IC50 is greater than 111000 nM. Besides, on Top1, the “Enzyme Inhibitory Activity Top1” value is reported as “++”. In addition, in the data set with SN12C, the GI50 was found to be 164 nM. The GI50 with OVCAR-3 was 190 nM. The GI50 in the data set on UACC-62 was 271 nM. Moreover, the GI50 in the data set with MCF-7 was found to be 31 nM.

Take `CNCCCn1c2c(c3ccc(F)cc3c1=O)C(=O)c1cc(OC)cnc1-2` [Compound 17g, 3-Fluoro-9-methoxy-6-(3-(methylamino)propyl)-5H-pyrido[3′,2′:4,5]cyclopenta[1,2-c]isoquinoline-5,11(6H)-dione]: the melting point was in the range of 259 to 265 °C. The GI50 in the data set on SF-539 was found to be 368 nM. In the data set on HOP-62, the GI50 was 142 nM. The GI50 in data set [1] was 245 nM. For the same compound, the GI50 with DU-145 came out at 202 nM. The GI50 in the data set on HCT-116 stood at 143 nM. For the same compound, the IC50 at recombinant human TDP2 (setting [2]) was 108000 ± 3000 nM. Besides, the IC50 at Tdp1 is greater than 111000 nM. For the same compound, the “Enzyme Inhibitory Activity Top1” value at Top1 was “+”. In addition, the GI50 with SN12C stood at 211 nM. For the same compound, in the data set with OVCAR-3, the GI50 turned out to be 263 nM. The GI50 in the data set on UACC-62 stood at 608 nM. Further, in the data set on MCF-7, the GI50 came to 34 nM.

With `COc1cnc2c(c1)C(=O)c1c-2n(CCCN2CCCC2)c(=O)c2cc(F)ccc12` [Compound 17i, 3-Fluoro-9-methoxy-6-(3-(pyrrolidin-1-yl)propyl)-5H-pyrido[3′,2′:4,5]cyclopenta[1,2-c]isoquinoline-5,11(6H)-dione], the melting point lay in the range of 157 to 162 °C. Besides, the GI50 with SF-539 was found to be 360 nM. For the same compound, in the data set with HOP-62, the 50% growth inhibitory concentration (GI50) is 212 nM. The concentration for 50% growth inhibition (GI50) in data set [1] came to 288 nM. Further, the GI50 with DU-145 worked out at 211 nM. Further, the GI50 in the data set with HCT-116 was 153 nM. Besides, at recombinant human TDP2 (setting [2]), the IC50 is greater than 111000 nM. The IC50 on Tdp1 is greater than 111000 nM. Besides, the “Enzyme Inhibitory Activity Top1” value on Top1 is recorded as “+++”. Besides, the GI50 in the data set on SN12C worked out at 241 nM. The GI50 in the data set with OVCAR-3 came to 307 nM. For the same compound, in the data set on UACC-62, the GI50 worked out at 471 nM. In addition, in the data set on MCF-7, the GI50 worked out at 48 nM.
